Reference: patent US11033572B2, “Molecular adjuvants for enhanced cytosolic delivery of active agents” (Universiteit Gent, priority 2017, dated 2021)

Columns and labels:
Format in all cases: cell-based
[1] = system: H1299_eGFP cells; test: Side scatter (cellular granularity) by flow cytometry
Procedure: For silencing experiments, H1299_eGFP cells were seeded in 24 well plates at a density of 35000 cells/well and were allowed to settle overnight. Subsequently, the cells were transfected and treated with small molecular adjuvants as described previously. Note that for every siEGFP or siPLK1 condition an siCTRL sample was included to account for potential off target effects. SiNG-mediated eGFP silencing was determined by flow cytometry. […] The cells were collected, centrifuged during 5 minutes at 300 g, resuspended in 300 μL flow buffer and kept on ice until analysis. For each sample the forward and side scatter as well as the green fluorescent signal were measured for at least 5000 cells.

[2] = system: H1299_eGFP cells; test: Transfection with Lipofectamine RNAiMAX or DOTAP-DOPE liposomes, with or without desloratadine, eGFP silencing; conditions: 40 μM, 2 h
Procedure: Lipofectamine® RNAiMAX (Invitrogen, Belgium) was applied as prescribed by the manufacturer. In short, equal volumes of RNAiMAX and siRNA dilutions were mixed and allowed to complex during 5 minutes at room temperature. Transfection occurred in Opti-MEM®. According to the guidelines, 5 pmol siRNA/well was applied to obtain optimal transfection efficiencies. To allow comparison with the siNG transfection methods, the RNAiMAX lipoplexes were additionally further diluted to 0.6 pmol siRNA/well. […] Of note, a single biological replicate was performed with three technical replicates and data are represented as the mean±SEM.
DOTAP (2,3-dioleoyloxy-propyl)-trimethylammonium)—DOPE (1,2-dioleoyl-sn-glycero-3-phosphoethanolamine) liposomes (LPS) were prepared via the lipid film hydration method. […]
For silencing experiments, H1299_eGFP cells were seeded in 24 well plates at a density of 35000 cells/well and were allowed to settle overnight. […] SiNG-mediated eGFP silencing was determined by flow cytometry. […] For each sample the forward and side scatter as well as the green fluorescent signal were measured for at least 5000 cells. The samples were excited with the 488 nm laser line and the signal was detected with the 530/30 filter using the FACSCalibur™ flow cytometer (BD Biosciences, Belgium) and BD CellQuest™ acquisition software.

[3] = system: H1299_eGFP cells; test: siPLK1-NG silencing evaluated through cell viability (CellTiter GLO)
Procedure: (§1) The silencing potential of siPLK1-NGs was established through evaluating the cell viability. Hereto, we applied the CellTiter GLO® assay (Promega, Belgium) according to the manufacturer's guidelines. Before initiating the assay, the culture plates and reconstituted assay buffer were placed at room temperature for 30 minutes. Next, the culture medium was replaced by 250 μL fresh cell medium and an equal volume of assay buffer was added. To induce complete cell lysis, the plates were shaken during 2 minutes and the signal was allowed to stabilize the following 10 minutes. 100 μL from each well was subsequently transferred to an opaque 96-well plate, which was measured with a GloMax® 96 Microplate Luminometer (Promega, Belgium). Three biological replicates were performed and data are expressed as the mean cell viability±SEM.
All previous experiments were performed on the eGFP reporter gene. To evaluate whether our approach also works in a therapeutic setting we applied siRNA against Polo Like Kinase 1 (PLK1). […] To evaluate the PLK1 silencing we evaluated the effect on cell viability since both induction of cell cycle arrest or apoptosis would reduce the number of cells present compared to the untreated control.

[4] = system: H1299_WT cells; test: Release of NG-delivered labeled oligonucleotides into the cytosol (positive nuclei); conditions: 40 μM, 20 h, after NG transfection; listed as DL
Procedure: To visualize the FITC-dextran release, a 1 mg/mL dispersion of 10 kDa FITC-dextrans (Sigma-Aldrich, Belgium) in complete cell medium was added during 1 hour at 37° C. in a humidified atmosphere containing 5% CO2. To assess oligonucleotide escape, the NGs were first loaded with 100 nM Alexa Fluor 647-labeled oligonucleotides (21-mer) (Eurogentec, Belgium) according to the procedure described for siRNA complexation. Of note, these oligonucleotides transfer to the nucleus upon release into the cytosol (Rehman et al., ACS Nano, 2013). Following four hours of NG transfection or 1 h incubation with FITC-dextrans, the cells were washed with PBS and received 1.5 mL fresh cell medium with or without 10, 20 or 40 μM DL. After an additional incubation period of 20 hours, the cell medium was removed and nuclei were labeled with Hoechst (Molecular Probes™, Belgium) in cell medium during 15 minutes at 37° C. […]
The samples were imaged using a laser scanning confocal microscope (LSCM, C1si, Nikon) and a 60× oil immersion Plan Apo objective (Nikon, Belgium). […] During data analysis with the ImageJ image processing software (NIH) both the total cell number and amount of cells with a diffuse FITC-dextran labeling or oligonucleotide-positive nuclei were counted. […]

[5] = system: H1299_eGFP cells; test: siNG transfection and sequential adjuvant treatment, eGFP silencing by flow cytometry
[6] = system: H1299_eGFP cells; test: Cell viability following CAD incubation (CellTiter GLO)
Procedure: as §1
Please note that we only applied siCTRL-loaded NGs in this set of experiments. With the interest of evaluating the possible effect of our treatment on cell viability, the CellTiter GLO® assay was performed as described above. Again, three biological replicates were performed and data are expressed as the mean±SEM.

`Clc1ccc2c(c1)CCc1cccnc1C2=C1CCNCC1` [(3) Desloratadine, Desloratadine] was tested, and the “cellular granularity (SSC) at eGFP readout” value ([1]; 40 μM, 2 h incubation) was “significant though minor augmentation”, the “increase in SSC signal” value ([1]; siNG transfection then 40 μM) was 1.8 fold and the “cytosolic siRNA delivery via cationic liposomes” value [2] was “not able to enhance cytosolic siRNA delivery”. For the same compound, the cell viability ([3]; 1 nM siPLK1-NG, second 40 μM treatment) was ~50%, the viability at 40 µM ([3]; 1 nM siPLK1-NG, single 40 μM treatment, 2 h) was ~60% and the “effect on cell viability reduction” value ([3]; 10 nM siPLK1-NG, single 2-hour treatment) was “maximal effect on cell viability reduction”. For the same compound, the Oligonucleotide positive nuclei [4] was 30%, the “siNG-mediated gene silencing, 2 h versus 20 h incubation” value ([5]; incubation 2 h or 20 h) was “improve siNG-mediated gene silencing to a similar extent” and the “adjuvant effect on siNG-mediated eGFP silencing” value ([5]; sequential treatment 10, 20 or 40 μM, 20 h, siNGs 2 nM siRNA) was “significant additional silencing”. For the same compound, the “additional cytotoxicity compared to siNGs alone” value [6] was “did not cause any additional cytotoxicity” and the “transfected cells remaining viable” value ([6]; human, 20 h, 40 μM) was ~60%.
